Assay results published in patent publication US6503492B2, “Antiperspirant or deodorant compositions” (priority 2001, dated 2003).
Several values for one entry are separate records, joined by “and”; a condition that tells them apart may be missing. Identical values can stand only once.

Legend:
histamine-induced itch [1] = experiment: Histamine-induced itch, test material topically applied in Aqueous Cream BP (histamine iontophoresis, VAS); settings: for Itch score (area under the curve): VAS area 0 to 5 min; for Itch score % of control: versus vehicle alone
histamine-induced itch [2] = experiment: Histamine-induced itch, test material topically applied in ethanol:Vaseline Intensive Care Lotion; format: in vivo, human; settings: for Anti-pruritic action (in words): comparison N-acyl ethanolamides in ethanol:VICL lotion; for Itch score % of control: comparison N-acyl ethanolamides, 50 mM in ethanol, in ethanol:VICL lotion, versus vehicle alone of the same run
Procedure: This mixture was applied (250 μl/5 cm^2-5 times at 1 h intervals) and histamine iontophoresis was performed on the treated site in the method described in Example 2. The vehicle control was ethanol:VICL (volume ratio 1:1).
Related molecules stearylethanolamine (SEA; 50 mM in ethanol) and linoleoylethanolamine (LAMEA; 50 mM in ethanol) were tested as potential activating agents for a CBR, employing the test method described in Example 3 and applied in the ethanol:VICL lotion.

histamine-induced itch [3] = experiment: Histamine-induced itch, test material applied under water-impermeable patch for 24 hours; settings: PEA 100 mM under patch
[4] = system: antiperspirant-induced irritation; experiment: Antiperspirant-induced irritation in vivo, 47 h Finn chamber patch test, erythema grading; parameters: species or system human
Procedure: In this Example, patch tests were performed on a mixed panel of 49 volunteers with age ranges between 18 and 55, using a double-blind protocol with randomized patch sites. Samples (20 mg) were applied to a filter paper that was placed within a Finn chamber (0.8 cm internal diameter). The chambers were then attached to the volar forearm using Scanpore™ tape (Norgesplater, Nor.) and left for 47 h. At the end of the 47 h period, the patches were removed and the site was left open for 5 h when the erythema associated with the patch was visually assessed and scored using an in-house standard assessment Patch Grading Scale as set out below.

[5] = system: skin organotypic cultures (Epiderm™); experiment: Skin organotypic culture: antiperspirant (APF1)-induced IL-6 release, ELISA; settings: for IL-6 pg/ml ± SD: APF1 topically, 24h
[6] = AEA 5% (w/v) in Aqueous Cream BP

CCCCC/C=C\C/C=C\C/C=C\C/C=C\CCCC(=O)NCCO [AEA, (all Z)-N-(2-Hydroxyethyl)-5,8,11,14-eicosatetraenamide]
Itch score (area under the curve) (histamine-induced itch [1]; [6]): 1322
Itch score % of control (histamine-induced itch [1]; [6]): 76 % of control
Effect on histamine-induced itch (in words) (histamine-induced itch [1]; anandamide topically applied): inhibitor of histamine-induced itch

CCCCCCC(C)(C)c1cc(O)c2c(c1)OC(C)(C)[C@@H]1CC=C(CO)C[C@@H]21 [HU-210, (6aR)-trans-3-(1,1-Dimethylheptyl)-6a,7,10,10a-tetrahydro-1-hydroxy-6,6-dimethyl-6H-dibenzo[b,d]pyran-9-methanol]
Itch score % of control (histamine-induced itch [1]; HU-210 0.05% (w/v) in Aqueous Cream BP): 7.3 % of control
Itch score (area under the curve) (histamine-induced itch [1]; HU-210 0.05% (w/v) in Aqueous Cream BP, volar forearm, after 4 hours): 101
Itch score % of control (histamine-induced itch [1]; HU-210 0.5% (w/v) in Aqueous Cream BP): 6.2 % of control
Itch score (area under the curve) (histamine-induced itch [1]; HU-210 0.5% (w/v) in Aqueous Cream BP, volar forearm, after 4 hours): 119
Effect on histamine-induced itch (in words) (histamine-induced itch [1]; HU-210 topically applied in Aqueous Cream BP): capable of reducing histamine-induced itch

CCCCC/C=C\C/C=C\CCCCCCCC(=O)NCCO [LAMEA, linoleoylethanolamine]
Anti-pruritic action (in words) (histamine-induced itch [2]): unable to demonstrate any anti-pruritic action or even appeared to exacerbate the itch response
Itch score % of control (histamine-induced itch [2]): 169 % of control and 108 % of control and 100 % of control

CCCCCCCCCCCCCCCC(=O)NCCO [PEA, Palmitoylethanolamide]
Effect on histamine-induced itch (in words) (histamine-induced itch [3]): can inhibit histamine-induced itch
Effect on histamine-induced itch (in words) (histamine-induced itch [2]; PEA topically applied in the presence of a lotion): can inhibit histamine-induced itch
Irritation induced by APF1 (in words) ([4]; 0.25% palmitoylethanolamide in APF1, Wilcoxon signed rank test, significance level 5%): reduced significantly
Mean Irritation Score ([4]; APF1 with 0.25% PEA, 20 mg in Finn chamber 47 h, scored 5 h after removal, Patch Grading Scale 0-4, 49 volunteers): 0.54
IL-6 pg/ml ± SD ([5]; PEA 0.1 μM in the medium): 38.3 ± 7.6 pg/mL
IL-6 pg/ml ± SD ([5]; PEA 1.0 μM in the medium): 36.5 ± 11.6 pg/mL
IL-6 pg/ml ± SD ([5]; PEA 10.0 μM in the medium): 59.5 ± 13.8 pg/mL
IL-6 pg/ml ± SD ([5]; PEA 100.0 μM in the medium): 43.0 ± 7.9 pg/mL
IL-6 pg/ml ± SD ([5]; PEA 1000.0 μM in the medium): 63.0 ± 24.8 pg/mL
AP-induced IL-6 release (in words) ([5]; PEA at all concentrations used, Dunnet's test p<0.05): significantly decrease AP-induced IL-6 release

CCCCCCCCCCCCCCCCCC(=O)NCCO [SEA, stearylethanolamine]
Anti-pruritic action (in words) (histamine-induced itch [2]): unable to demonstrate any anti-pruritic action or even appeared to exacerbate the itch response
Itch score % of control (histamine-induced itch [2]): 231 % of control and 260 % of control and 190 % of control
